The record followed here is patent US20200354327A1, “COMPOUND HAVING STAT3 INHIBITORY ACTIVITY AND USE THEREOF” (CYTUS H&B CO., LTD., priority 2017, published 2020).

Test [1] has as its target T1, STAT3 (Homo sapiens, UniProt P40763). Kind of test: STAT3-TA-luciferase assay in HEK293T cells. Format: cell-based. The procedure: Assay on the expression of luciferase was performed as previously described (Jung J E, et al. FASEB J. 19, 1296-1298 (2005)). Plasmid DNA having STAT3-TA-luciferase as a reporter construct was temporarily expressed in HEK293T cells using Lipofectamine 2000, the HEK293T cells were treated with ODZ10117, the level of STAT3 expression was measured using a luminometer, and the inhibitory effect was compared with that of the DMSO-treated group.

Test [2] has as its system human malignant glioblastoma. Kind of test: Cell viability of human malignant glioblastoma with or without IL-6. The following applies: treated with IL-6 for 24 or 48 hours or not; various concentrations. Format: cell-based.
In test [3] the test system is U87-MG cells. Kind of test: Cell proliferation assay, U87-MG. Conditions: by time period, versus DMSO. Format: cell-based, human. How it is done:
Cell proliferation assay was performed as previously described (Won C, et al. Anticancer Res. 30, 481-488 (2010)). In order to analyze the cell proliferation rate, U87-MG and MDA-MB-231 cell lines were dispensed into a 6-well culture dish, then treated with DMSO and ODZ10117 the next day, and stained with crystal violet after 0 h, 24 h, 48 h, and 72 h, and the number of live cells was calculated using a hemocytometer.

The subject of another test is caspase-3 and PARP. Kind of test: Western blot of caspase-3 and PARP. Format: cell-based, human. How it is done:
(§1) Western blot analysis was performed (Jung J E, et al. FASEB J. 19, 1296-1298 (2005)). The cells were washed two times with PBS and suspended in the lysate (50 mM Tris-HCl, pH 7.4, 350 mM NaCl, 1% Triton X-100, 0.5% Nonidet P-40, 10% glycerol, 0.1% SDS, 1 mM EDTA, 1 mM EGTA, 1 mM Na3VO4, 1 mM PMSF, protease and phosphorylation inhibitor) and the cell membrane and nuclear membrane were crushed to lyse the cells. The insoluble protein fraction was removed by centrifugation, and the supernatant was mixed with SDS electrophoresis buffer and electrophoresis (SDS-PAGE) was performed to detect the protein with the desired antibody and to confirm the protein expression level.

A further test has as its system Bcl-2 and Bcl-XL. Kind of test: Real-time polymerase chain reaction of anti-apoptotic genes. Format: cell-based, human. The procedure:
(§2) RNA isolation and real-time polymerase chain reaction were performed as described previously (Jung J E, et al. FASEB J. 19, 1296-1298 (2005)). Primer specific for human-derived Bcl-XL, Bcl-2, Twist, and GADPH genes were mixed with QuantiFast SYBR Green PCR master mix, and each gene was amplified using the Applied Biosystems 7300 real-time PCR system to compare the expression level.

For another test, the system named is MDA-MB-231 cells. Kind of test: Wound healing assay, MDA-MB-231. Format: cell-based, human. The following applies: MDA-MB-231, 24 hours. How it is done:
Wound healing assay was performed as previously described (Jung J E, et al. FASEB J. 19, 1296-1298 (2005)). The respective cells were dispensed into a 12-well plate (U87-MG: 5×10^5 cells/ml; MDA-MB-231: 3×10^5 cells/ml) and cultured until the cells proliferated 90% or more. Cells scraped off from the plate with the tip of the pipette were washed two times with PBS. After 24 hours, the proliferation (invasion) of cells at the part from which the cells were had been removed was observed under a microscope, and images were taken.

The next test deals with Twist. Put plainly: Expression of Twist in U87-MG and MDA-MB-231 cells. Conditions: U87-MG and MDA-MB-231, 24 hours. Format: cell-based, human. How it is done:
as §2

For test [4], the system named is p-STAT3, Cleaved Caspase-3, Bcl-XL, Ki67 and MMP2. Kind of test: Tumor histology and immunostaining of xenograft tumor sections. Format: in vivo, BALB/c nude mice. Conditions: 7th day of drug administration. How it is done:
Tumors isolated from mice were fixed with formalin and embedded with paraffin, and sections were cut from each paraffin block. For histological evaluation, the sections were stained with hematoxylin-eosin, phospho-STAT3, cleaved caspase-3, Bcl-XL, Ki67, and pro/active MMP-2, respectively. The paraffin of the sections was removed, moisture was removed using alcohol, and then the sections were heated in 10 mM sodium citrate buffer (pH: 6.0) for 5 minutes with microwaves. Non-specific binding was removed by reacting the sections with a PBS solution containing 2.5% bovine serum albumin and 2% normal goat serum for 1 hour. The sections were reacted with antibodies against phospho-STAT3, cleaved caspase-3, Bcl-XL, Ki67, and pro/active MMP-2 diluted 1:100 overnight at 4° C. As a negative control, the sections were reacted with a dilution solution in a state of not containing primary antibodies. The sections were then washed and reacted with secondary antibodies labeled with appropriate biotin, and the location and expression of the bound antibodies were confirmed using an avidin-biotin-horseradish complex. For histological evaluation, each stained section was observed under a microscope at 100-fold and 400-fold magnifications and analysis was performed using a Sony XC-77 CCD camera and a microcomputer imaging device Model 4 image analysis system.

The test system of test [5] is U87-MG cells. Put plainly: Survival of mice injected with U87-MG cells. Format: in vivo. Conditions: versus DMSO.
The target in test [6] is T1, STAT3. Kind of test: STAT3 activity in various human cancer cell lines with excessively activated or IL-6-induced STAT3. Format: cell-based. Also on record: endogenous in cells; host or cells: L540, HDLM-2, U87-MG, MDA-MB-231, further human glioblastoma and breast cancer lines. How it is done:
The human cancer cell lines used in the experiment were U87-MG (human malignant glioblastoma) and MDA-MB-231 (human malignant breast cancer) cell lines, and various kinds of human-derived blood and solid cancer cells including these human cancer cell lines were cultured as previously described (Jung J E, et al. FASEB J. 19, 1296-1298 (2005)). The human Hodgkin lymphoma cancer cell lines L540 and HLDM-2 used in the experiment were obtained from the German Collection of Microorganism and Cell Cultures (DSMZ, Germany) and cultured using RPMI 1640 medium containing 20% FBS in a 5% CO2 incubator at a temperature of 37° C.
as §1

Test [7] concerns the target T1, STAT3. Kind of test: Nuclear translocation of STAT3 (fluorescence microscope). Format: cell-based. Set-up: endogenous in cells; host or cells: L540, HDLM-2, U87-MG, MDA-MB-231, further human glioblastoma and breast cancer lines. The following applies: compared with the control group.

T1 sequence (P40763 whole entry): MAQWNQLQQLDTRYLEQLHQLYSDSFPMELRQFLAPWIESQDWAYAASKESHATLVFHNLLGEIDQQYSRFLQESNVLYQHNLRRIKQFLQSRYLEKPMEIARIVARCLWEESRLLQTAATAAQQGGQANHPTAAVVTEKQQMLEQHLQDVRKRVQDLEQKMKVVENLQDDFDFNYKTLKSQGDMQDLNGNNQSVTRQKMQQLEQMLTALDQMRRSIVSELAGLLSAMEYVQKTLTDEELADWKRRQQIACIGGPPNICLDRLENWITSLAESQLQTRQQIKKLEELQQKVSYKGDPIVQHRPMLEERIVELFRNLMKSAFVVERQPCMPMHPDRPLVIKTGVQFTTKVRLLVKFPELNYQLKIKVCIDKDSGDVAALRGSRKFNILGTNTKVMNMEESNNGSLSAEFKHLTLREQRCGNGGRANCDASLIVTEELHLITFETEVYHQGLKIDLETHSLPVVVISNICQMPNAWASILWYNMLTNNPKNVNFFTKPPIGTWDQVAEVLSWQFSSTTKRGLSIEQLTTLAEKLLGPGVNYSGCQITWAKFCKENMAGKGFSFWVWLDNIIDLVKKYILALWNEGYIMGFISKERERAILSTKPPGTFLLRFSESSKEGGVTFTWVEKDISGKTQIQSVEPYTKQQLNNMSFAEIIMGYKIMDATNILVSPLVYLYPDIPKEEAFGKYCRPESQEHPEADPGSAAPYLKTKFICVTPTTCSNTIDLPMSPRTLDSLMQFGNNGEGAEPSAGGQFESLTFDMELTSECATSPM

`Clc1ccc(OCc2noc(C(Cl)(Cl)Cl)n2)c(Cl)c1` [ODZ10117, 3-(2,4-dichloro-phenoxymethyl)-5-trichloromethyl-[1,2,4]oxadiazole]: the “promoter activity of STAT3” value on STAT3 [1] (compared with DMSO-treated group) is on record as “significantly decreased the promoter activity of STAT3”. On STAT3 [1] (various concentrations), the “transcriptional activity of STAT3” value is given as “inhibited the transcriptional activity of STAT3 in a concentration-dependent manner”. Besides, in test [2], the cell survival result was “cell survival was inhibited”. Besides, the cell proliferation entry in the test with U87-MG cells [3] is recorded as “effectively inhibited the proliferation of the two cell lines”. Also, the “amount of fragmented caspase-3 and PARP proteins” value in the test with caspase-3 and PARP was “significantly increased the amount of fragmented caspase-3 and PARP proteins”. Moreover, the “expression levels of anti-apoptotic genes Bcl-2 and Bcl-XL” value with Bcl-2 and Bcl-XL is recorded as “effectively inhibited the expression of these genes”. Further, the cell migration result in the test on MDA-MB-231 cells is “significantly inhibited the migration of these cells”. Besides, in the test with Twist, the “expression of Twist” value is on record as “significantly decreased”. In test [4], the “activity of caspase-3 in tumor tissues” value is listed as “increased the activity of caspase-3”, the “expression of Bcl-XL in tumor tissues” value is listed as “significantly decreased the expression”, the “expression of Ki67 in tumor tissues” value is listed as “significantly decreased the expression of Ki67” and the “expression of pro/active MMP2 in tumor tissues” value is given as “significantly decreased the expression”. Also, the “phosphorylation of STAT3 in tumor tissues” value in test [4] (versus DMSO) is reported as “phosphorylation of STAT3 significantly decreased”. The survival time result in the test on U87-MG cells [5] was “survival time increased”. Besides, on STAT3 [6] (IL-6 induced), the “activity of STAT3 induced by IL-6” value was “efficiently inhibited the activity of STAT3 induced by IL-6”. For the same molecule, the “activity of STAT3” value at STAT3 [6] (various human cancer cell lines in which STAT3 was excessively activated) is on record as “inhibited the activity of STAT3 in all kinds of cell lines used in the experiment”. The “activity of STAT3 induced by IL-6, compared with known inhibitors” value on STAT3 [6] (versus NSC628869 and NSC74859) was “more efficiently inhibited the activity of STAT3 induced by IL-6 than NSC628869 and NSC74859”. Moreover, the “nuclear translocation of STAT3” value at STAT3 [7] is listed as “further inhibited nuclear translocation of STAT3”.
